Columns and labels:
HeLa cells = test: Cell-viability assay (PrestoBlue); format: cell-based, Human; conditions: 24 h treatment, normalized for Cu concentration, mean ± SD, N ≥ 3
Method: (§1) Human cancer cells (cervix: HeLa; and breast: MCF7) were obtained from American Type Culture Collection (ATCC, Manassas, VA, United States). Cells were routinely cultured with DMEM (Dulbecco’s modified Eagle’s medium, Invitrogen) for HeLa, and with DMEM/F-12 (Dulbecco’s MEM/Nutrient Mixture F-12 Ham, Invitrogen) for MCF7, both supplemented with 10% heat-inactivated fetal bovine serum (FBS, Invitrogen) at 37°C in a humidified 5% CO2 atmosphere.
(§2) HeLa and MFC7 cells were seeded into a 96-well plate at a cell density of 3·10^3 cells/well in 100 µL of culture medium and allowed to grow overnight. The next day, the C1-C5 complexes were added to cells at a range concentration of 0–200 μM. […] The growth inhibitory effect of the complexes was measured at 24 h using the PrestoBlue Cell Reagent (Life Technologies) assay. […] After 2 h incubation (37°C, 5% CO2), the fluorescence of each well was measured at 572 nm after excitation at 531 nm with a Microplate Reader Victor3 (Perkin Elmer). Cytotoxicity was evaluated by relative cell viability (%) for each sample related to the control well. The IC50 values were calculated from the obtained cell viability results. […] Cells were allowed then to evolve until a total incubation time of 72 h and the cell viability was measured with PrestoBlue®, as beforehand detailed.

MCF7 cells = test: Cell-viability assay (PrestoBlue); format: cell-based, Human; conditions: MCF7, 24 h treatment, normalized for Cu concentration, mean ± SD, N ≥ 3
Method: as §1, §2

[1] = Ascorbate consumption experiment (ROS-generation capability, UV-vis); conditions: ascorbic acid 100 µM, complex 2 µM, 50 mM NaCl/5 mM TRIS-HCl pH 7.2, max 5% DMSO, UV-vis at 265 nm
Method: All the spectra were recorded at room temperature either on an Agilent HP 8453, a Varian Cary 50 Bio, a Varian Cary 60 Bio or a Perkin Elmer Lambda 650 spectrophotometer, using 1 cm quart-cuvettes. Ascorbate consumption experiments were monitored by UV-vis at the maximum absorption band of the ascorbic acid (100 µM) at 265 nm for about 45 min. CuCl2 and the assayed complexes C1-C3 were added at a final concentration of 2 µM in 50 mM NaCl/5 mM TRIS-HCl buffer (pH 7.2), with a maximum of 5% of DMSO.
Prior to biological evaluation, and after proving that the new C2-C5 Cu(II) complexes hold the same metallic core as C1, the impact of the ligand substituents on their catalytic properties, and therefore, ROS-generating capabilities ([Peña et al., 2021]), were confirmed with the two simplest functionalized Cu(II) compounds (C2 and C3), as model compounds bearing oppositely-charged functional moieties. The consumption of ascorbate was measured by UV-vis spectroscopy, monitoring its characteristic absorbance at 265 nm. The correlation of ascorbate consumption with the generation of ROS has proven to be a reliable method to effectively monitor ROS production ([Alies et al., 2013]; [Chassaing et al., 2013]).

With `[Cl][Cu][Cl]` [CuCl2, copper(II) chloride] the IC50 (HeLa cells) was at least 200 µM, the IC50 (MCF7 cells) was at least 200 µM and the “Time to (almost) total ascorbate consumption” value [1] was about 20 min.
